Tests used:
miR-155 [1] = test: miR-155 gene expression in BM and tumor of OPC mice; assay type: in vivo, mouse; conditions: API 25 mg/kg IP 3 times per week for 2-3 weeks, vs OPC mice
Description: The inventors reported recently that API reduced tumor growth in an orthotopic (O) mouse model of PC (OPC)^12, which is a more clinically relevant model^69. To investigate if API targets miR-155 and regulates SHIP-1 expression in the BM and tumor of an OPC mouse model, OPC mice were treated with API at a dose of 25 mg/kg (IP) 3 times per week for 2-3 weeks. […] To generate orthotopic pancreatic models (OPC), anesthetized (1.5-3% isoflurane) mice were injected in the neck of the pancreas, via laparotomy^59, with sterile PBS (CTRL) or 1.25×10^4 Panc02 cells (OPC), in sterile 1×PBS. Once pancreatic tumors were confirmed through ultrasound imaging (Vevo 2100), a cohort of OPC mice received API (25 mg/kg, 100 μL volume) while CTRL and OPC mice received sterile PBS (vehicle), all via IP, three times per week until the end of the study^12. […] The PCR cycling parameters were 95° C. for 10 min followed by 40 cycles of a denaturing step at 95° C. for 15 s and an annealing/extension step at 60° C. for 1 min. All reactions were performed in triplicate. Relative expression of miR-155 was calculated using the comparative […] method normalized to a mouse endogenous control gene snoRNA202 and human endogenous control gene U6 (Assay IDs: 001232 and 001093).

miR-155 [2] = test: miR-155 gene expression in tumors of KC-HPC mice; assay type: in vivo, mouse; conditions: API 25 mg/kg IP three times per week for 17 days, vs vehicle
Description: To build on these findings, the inventors then used a novel pancreatic cancer cell line, UN-KC-6141, that resembles human PC due to its expression of a mutated Kras and generated mice harboring these tumor cells, called KC-HPC mice. Such mice were treated with API at a dose of 25 mg/kg (IP) three times per week for 17 days. The inventors examined if API also targets miR-155 and regulates SHIP-1 in the tumors from KC-HPC mouse model. […] The HPC models were euthanized 21-28 days post-injection, while the KC-HPC models were euthanized 16-17 days post-injection. miRNA extraction of PC cells (treated with miR-155 inhibitor and/or API), BM and digested pancreatic tumors cells was performed using a mirVana miRNA Isolation Kit (Applied Biosystems, Waltham, MA, USA) as per the manufacturer's instructions. miRNA was reverse transcribed into cDNA using TaqMan miRNA reverse transcription kit (Applied Biosystems) with gene-specific stem-loop RT primers according to the manufacturer's instructions. cDNA was then loaded onto either mmu-miR-155 or ipu-miR-155 TaqMan miRNA assays (Assay IDs: 002571 and 467534_mat) using TaqMan Fast Universal PCR Master mix (Applied Biosystems) and miR-155 detected with an Eppendorf Master cycler real plex 4. […]

iNOS = test: Western blot of iNOS protein in tumors of KC-HPC mice; assay type: in vivo, mouse; conditions: KC-HPC-API vs KC-HPC mice
Description: The inventors then assessed the expression of CD40 (a T cell co-stimulation marker) on M1 TAM (gated as MHC-II^+ and CD206) within the tumor from KC-HPC vs. KC-HPC-API mice. […] Single-cell suspensions of BM, digested pancreatic tumors cells and UN-KC-6141 cells treated with API (40 μM) were lysed with radioimmunoprecipitation buffer (Sigma-Aldrich), quantified with a BCA Protein Assay kit (Thermo Fisher Scientific, Waltham, MA, USA), resolved by SDS-PAGE (Thermo Fisher Scientific) and transferred onto a nitrocellulose membrane as previously described. Membranes were probed with either anti-SHIP-1 (Santa Cruz Biotechnology, Dallas, TX, USA), anti-iNOS (Cell Signaling Technology) or anti-Bcl-2 (Cell Signaling Technology, Danvers, MA, USA), all at a dilution of 1:1000. All blots were re-probed with a housekeeping protein, HRP-conjugated anti-β-actin (Sigma-Aldrich), at a dilution of 1:20,000. Membranes were then probed with the respective secondary anti-mouse or rabbit IgG HRP-conjugated antibodies (1:1000) of SHIP-1 and iNOS. Detection of SHIP-1, iNOS and β-actin proteins was performed using Super Signal West Pico or Femto Chemiluminescent Substrates (Thermo Fisher Scientific) and then imaged on a Bio-Rad Chemi Doc XRS Imaging System. Normalized densitometric ratios (divided by β-actin) were determined by quantifying WB results using Image J.

[3] = test system: heterotopic (H) mouse model of PC (HPC); conditions: earlier report (ref 55); cited from earlier work

O=c1cc(-c2ccc(O)cc2)oc2cc(O)cc(O)c12 [API, 40,5,7-Trihydroxyflavone, 5,7-Dihydroxy-2-(4-hydroxyphenyl)-4-benzopyrone]
miR-155 gene expression in BM (miR-155 [1]): inhibit the overexpression
miR-155 gene expression in pancreatic tumor (miR-155 [1]): significant decrease
miR-155 gene expression in tumor (miR-155 [2]): significantly reduced
iNOS protein expression in tumor (iNOS): significant increase
survival [3]: increased
tumor growth [3]: reduced

— patent publication US20240415804A1, “METHOD OF TREATING PANCREATIC CANCER” (University of South Florida, priority 2022, published 2024)
